Source: patent US8436138B2, “Binder for C-reactive protein” (Modpro AB, priority 2006, dated 2013)

Assay: Stability in aqueous solution
Format: physicochemical
Conditions: acidic pH (0.1% TFA)
Text: Commercially available aminohexanoic acid 2 was N,N-dimethylated^11 12 by an Eschweiler-Clarke-type procedure (treatment with formaldehyde and hydrogen/palladium/carbon), and the resulting product (3, 86%) was esterified by treatment with methanolic hydrogen chloride to give the methyl ester 4 (96%). Quartenarization was effected by reacting 4 with monomethoxytrityl-protected bromoethanol 1, forming derivative 5 (73%). Unprotected bromoethanol could also be reacted with 4, but the reaction yield was lower and the product was more difficult to detect and purify. Monomethoxytrityl protection conferred lipophilicity and TLC detectability (UV visible and acid stainable) to the crucial intermediate 5. Saponification of 5 with lithium hydroxide/water/t-butanol gave the corresponding acid 6 (95%), which was treated without isolation with p-nitrophenol and diisopropyl carbodiimide in pyridine to give the p-nitrophenyl ester 7 (86%). Brief treatment of 7 with formic acid gave the corresponding alcohol 8, which was used directly in the next step, because of its sensitivity to self-condensation. Reaction of crude 8 at 0° C. in acetonitril with first an excess of phosphorous oxychloride and triethylamine, then water gave the desired monophosphate 9 in 22% yield from 7, after HPLC purification. […]

## C[N+](C)(CCCCCC(=O)Oc1ccc([N+](=O)[O-])cc1)CCOP(=O)([O-])O [Peptide 9, 6-(N,N-Dimethylamino)-N-[(2-phosphoryloxy)-ethyl]-hexanoic acid p-nitrophenyl ester]
  stability in aqueous solution: stable
